Legend:
HEp-2 = assay: Compound was tested for inhibition against replication of type 1 herpes simplex virus (HSV-1,strain HF) in human epidermoid carcinoma cells; assay type: functional
L929 [1] = assay: Compound was tested for inhibition against replication of type 1 herpes simplex virus (HSV-1,strain 377) in L929 cells; Experiment 1; assay type: functional, Mus musculus
L929 [2] = assay: Compound was tested for inhibition against replication of type 1 herpes simplex virus (HSV-1,strain 377) in L929 cells; Experiment 2; assay type: functional, Mus musculus
L929 [3] = assay: Compound was tested for inhibition against replication of type 1 herpes simplex virus (HSV-2,strain MS) in L929 cells; assay type: functional, Mus musculus
Vero [4] = assay: Compound was tested for inhibition against replication of type 1 herpes simplex virus (HSV-1,strain 377) in vero cells; Experiment 3; assay type: functional, Chlorocebus sabaeus
Vero [5] = assay: Compound was tested for inhibition against replication of type 1 herpes simplex virus (HSV-1,strain 377) in vero cells; Experiment 4; assay type: functional, Chlorocebus sabaeus
[6] = Ratio of the virus rating of the thymidine analogue to the virus rating of ara-A; Experiment 1; assay type: functional
[7] = Ratio of the virus rating of the thymidine analogue to the virus rating of ara-A; Experiment 2; assay type: functional
L929 [8] = assay: Compound was tested for inhibition against replication of type 1 herpes simplex virus (HSV-1,strain 377) L929 cells; assay type: functional, Mus musculus
Vero [9] = assay: Compound was tested for inhibition against replication of type 1 herpes simplex virus (HSV-1,strain 377) in vero cells; Experiment 2; assay type: functional, Chlorocebus sabaeus
[10] = Ratio of the virus rating of the thymidine analogue to the virus rating of ara-A; assay type: functional
L929 [11] = assay: Compound was tested for inhibition against replication of type 1 herpes simplex virus (HSV-1,strain 377) in L929 cells; assay type: functional, Mus musculus
[12] = Ratio of the virus rating of the thymidine analogue to the virus rating of ara-A in vero cells; Experiment 2; assay type: functional
[13] = Ratio of the virus rating of the thymidine analogue to the virus rating of ara-A in vero cells; Experiment 3; assay type: functional
[14] = Ratio of the virus rating of the thymidine analogue to the virus rating of ara-A in vero cells; Experiment 4; assay type: functional
Vero [15] = assay: Compound was tested for inhibition against replication of type 1 herpes simplex virus (HSV-1,strain 377) in vero cells; assay type: functional, Chlorocebus sabaeus
Vero [16] = assay: Compound was tested for inhibition against replication of type 1 herpes simplex virus (HSV-1, strain 377) in vero cells; Experiment 2; assay type: functional, Chlorocebus sabaeus
Vero [17] = assay: Compound was tested for inhibition against replication of type 1 herpes simplex virus (HSV-1, strain 377) in vero cells; Experiment 5; assay type: functional, Chlorocebus sabaeus

| SMILES | VR (HEp-2) | VR (L929 [2]) | VR (L929 [3]) | VR (Vero [4]) | VR (Vero [5]) | Ratio [7] | VR (Vero [9]) | Ratio [10] | VR (L929 [11]) | further results |
| --- | --- | --- | --- | --- | --- | --- | --- | --- | --- | --- |
| Cc1cn(C2CC(O)C(CN)C2)c(=O)[nH]c1=O (stereo not given) | 0.2 | 1.8 | 0.5 | 0 | 0 | 1.28 | – | – | – | VR (L929 [1]): 3; Ratio [6]: 1 |
| Cc1cn([C@@H]2C[C@H](CO)[C@@H](N)C2)c(=O)[nH]c1=O | – | – | – | – | 0.4 | – | 0 | 0 | – | VR (L929 [8]): 0.4 |
| Cc1cn(C2CC(O)C(CN=[N+]=[N-])C2)c(=O)[nH]c1=O (stereo not given) | 0 | – | 0 | – | – | – | – | 0.27 | 0.8 | – |
| Cc1cn([C@@H]2C[C@H](CO)[C@H](N=[N+]=[N-])C2)c(=O)[nH]c1=O | – | 0 | 0 | 1 | 0.8 | – | 0.6 | – | 0.2 | Ratio [12]: 0.43; Ratio [13]: 0.5; Ratio [14]: 0.44 |
| Cc1cn([C@@H]2C[C@H](CO)[C@@H](N=[N+]=[N-])C2)c(=O)[nH]c1=O | – | – | – | – | – | – | – | – | – | VR (Vero [15]): 0 |
| Cc1cn([C@@H]2C[C@H](CO)[C@H](N)C2)c(=O)[nH]c1=O | – | 0.9 | – | – | – | 0.9 | – | – | – | VR (Vero [16]): 0; VR (Vero [17]): 0 |

— ChEMBL document CHEMBL1123151, “Carbocyclic analogues of 5'-amino-5'-deoxy- and 3'-amino-3'-deoxythymidines” (1986)
